According to patent US6071884A, “Pharmaceutical compositions and therapeutic methods” (Kirin Beer Kabushiki Kaisha, priority 1992, dated 2000):

Experiments:
[1] = tested on: marrow cells (mononuclear cell fraction); assay: Proliferation-stimulating effect on marrow cell of mouse (3H-TdR uptake); format: cell-based, mouse (BALB/c); details: percentage of control, 72 h; for activity at 0.1 µg/mL: 10^-1 μg/ml; for activity at 0.01 µg/mL: 10^-2 μg/ml; for activity at 0.001 µg/mL: 10^-3 μg/ml; for activity at 1 µg/mL: 10^0 μg/ml
Method: Pharmacological Test 1: Proliferation-Stimulating Effect on Marrow Cell of Mouse
Marrow cells were prepared from the thigh bone of a 7 week old female BALB/c mouse purchased from Japan SLC Co., Ltd., and a mononuclear cell fraction (MNF) obtained by fractionation using a lympholyte-M (Cedar Lane, Ontario, Canada) was used in the following experiment.
The concentration of the MNF was adjusted to 1.5×10^6 cells/ml by using 10% FCS RPMI 1640 (Nissui Pharmaceutical Co., Ltd., Tokyo, Japan) as a culture medium. 10 μl/well of a sample with a predetermined concentration and 100 μl/well of the above-prepared MNF were placed on a round-bottomed 96 well plate, and incubated under the conditions of 37° C. and 5% CO2 for 72 hours. Thereafter, 0.5 μCi/well of ^3 H-thymidine (^3 H-TDR) was added. After 8 hour incubation, the cells were harvested, and the amount of the 3H-TdR taken in the nuclei was measured by a liquid scintillation counter.

[2] = Life-span-increasing effect on irradiation of a lethal dose of radiation; format: in vivo, mouse (BDF1); details: 10 mice/group, 9 Gy X-ray, 0.1 mg/kg i.v. days 0, 4, 8
Method: Pharmacological Test 4: Life-Span-Increasing Effect on Irradiation of a Lethal Dose of Radiation
An experiment was carried out by using 6 week old female BDF1 mice purchased from Japan SLC Co., Ltd., with 10 mice made one group.
The entire bodies of the entire body of the mice were irradiated with 9 Gy of X-rays by using a Hitachi X-ray irradiator (MBR-1520R), and the day on which the X-ray was irradiated was referred to as "day 0".

blood platelets [3] = assay: Blood-platelet-increasing effect upon normal mouse; format: in vivo, mouse (BDF1); details: normal mice; 6 days after 0.1 mg/kg i.v.; mean ± SD; vehicle per series 58.2, 63.0, 71.1
Method: Pharmacological Test 6: Blood-Platelet-Increasing Effect upon Mouse
An experiment was carried out by using 6 week old female BDF1 mice purchased from Japan SLC Co., Ltd., with 5 mice made one group.
Each sample was administered to the caudal vein of the mice at a dose of 0.1 mg/kg. After 6 days, blood was collected from the fundus vein of the mice, and the number of blood platelets was measured by a sequential multi-channel hemocytometer E-2500/cs (Toa Iyo Denshi Kabushiki Kaisha). The number of blood platelets of the vehicle-administered group, and that of the sample-administered group are shown in Table 6.

blood platelets [4] = assay: Thrombocytopenia-inhibiting effect in X-ray-irradiated mice; format: in vivo, mouse (BDF1); details: 10 days after 5 Gy X-ray; 0.1 mg/kg i.v. within 2 h; mean ± SD; vehicle per series 10.3, 6.8, 6.7; non-treatment 68.2, 96.9, 73.0
Method: Pharmacological Test 5: Thromboclytopenia-Inhibiting Effect
The thrombocytopenia-inhibiting effect of each sample upon an X-ray-irradiated mouser which is one of models with a decreased number of blood platelets was examined.
An experiment was carried out by using 6 week old female BDF1 mice purchased from Japan SLC Co., Ltd., with 6 mice made one group.
5 Gy of X ray was irradiated to the entire body of the mice by a Hitachi X-ray irradiator CMBR-1520R). Within 2 hours after the irradiation, each sample was administered to the caudal vein of the mice at an amount of 0.1 mg/kg.
After 10 days, blood was collected from the fundus vein of the mice, and the number of blood platelets was measured by a sequential multi-channel hemocytometer E-2500/cs (Toa Iyo Denshi Kabushiki Kaisha). The number of blood platelets of the non-treated group, that of the medium-administered group, and that of the sample-administered group are shown in Table 5.

[5] = day 10, controls per series 10, 10, 10, 10, 10, 8
[6] = day 15, controls per series 8, 9, 5, 5, 7, 1
[7] = day 20, controls per series 4, 5, 1, 2, 3, 0
[8] = day 25, controls per series 3, 3, 0, 0, 2, 0
[9] = day 30, controls per series 1, 1, 0, 0, 0, 0

| Structure (SMILES) | activity at 0.1 µg/mL [1] [%] | activity at 0.01 µg/mL [1] [%] | activity at 0.001 µg/mL [1] [%] | Number of Surviving Mice [2, 5] [mice] | Number of Surviving Mice [2, 6] [mice] | Number of Surviving Mice [2, 7] [mice] | Number of Surviving Mice [2, 8] [mice] | Number of Surviving Mice [2, 9] [mice] | Number of Surviving Mice ([2]; day 35, all controls 0) [mice] | Number of Surviving Mice ([2]; day 40, all controls 0) [mice] | Number of Blood Platelets (blood platelets [3]) | Number of Blood Platelets (blood platelets [4]) | activity at 1 µg/mL [1] [%] |
| --- | --- | --- | --- | --- | --- | --- | --- | --- | --- | --- | --- | --- | --- |
| CCCCCCCCCCCCCCCCCC(=O)N[C@@H](CO[C@H]1O[C@H](CO)[C@H](O)[C@H](O)[C@H]1O)[C@H](O)CCCCCCCCCCCCCCC [Compound 4, (2S,3R)-1-(α-D-galactopyranosyloxy)-2-octadecanoylamino-3-octadecanol] | 297 | 75 | 151 | 10 | 10 | 8 | 7 | 5 | 5 | 5 | 83.1 ± 6.5 × 10^4 /μl | 14.3 ± 4.7 × 10^4 /μl |  |
| CCCCCCCCCCCCCCCCCCCCCC[C@@H](O)C(=O)N[C@@H](CO[C@H]1O[C@H](CO)[C@H](O)[C@H](O)[C@H]1O)[C@H](O)[C@H](O)CCCCCCC [Compound 24, (2S,3S,4R)-1-(α-D-galactopyranosyloxy)-2-[(R)-2-hydroxytetracosanoylamino]-3,4-undecanediol] | 197 | 79 | 77 | 10 | 9 | 9 | 9 | 9 | 9 | 9 | 102.6 ± 9.9 × 10^4 /μl | 21.6 ± 7.2 × 10^4 /μl | 576 |
| CCCCCCCCCCCCCCCCCCCCCCCC(=O)N[C@@H](CO[C@H]1O[C@H](CO)[C@H](O)[C@H](O)[C@H]1O)[C@H](O)CCCCCCCCCCCCCCC [Compound 1, (2S,3R)-1-(α-D-galactopyranosyloxy)-2-tetracosanoylamino-3-octadecanol] | 465 | 263 | 134 | 10 | 10 | 10 | 9 | 9 | 9 | 9 | 112.2 ± 6.5 × 10^4 /μl | 25.4 ± 6.8 × 10^4 /μl |  |
| CCCCCCCCCCCCC/C=C/[C@@H](O)[C@H](CO[C@H]1O[C@H](CO)[C@H](O)[C@H](O)[C@H]1O)NC(=O)CCCCCCCCCCCCCCCCC [Compound 15, (2S,3R,4E)-1-(α-D-galactopyranosyloxy)-2-octadecanoylamino-4-octadecen-3-ol] | 292 | 101 | 69 | 10 | 9 | 6 | 6 | 6 | 6 | 6 | 84.7 ± 6.0 × 10^4 /μl | 17.8 ± 2.4 × 10^4 /μl | 979 |
| CCCCCCCCCCCCCC(=O)N[C@@H](CO[C@H]1O[C@H](CO)[C@H](O)[C@H](O)[C@H]1O)[C@H](O)CCCCCCCCCCCCC [Compound 10, (2S,3R)-1-(α-D-galactopyranosyloxy)-2-tetradecanoylamino-3-hexadecanol] | 356 | 90 | 77 | 10 | 8 | 7 | 7 | 7 | 7 | 7 | 87.2 ± 4.0 × 10^4 /μl | 19.6 ± 4.0 × 10^4 /μl |  |
| CCCCCCCCCCCCCCCCCCCCCC[C@H](O)C(=O)N[C@@H](CO[C@H]1O[C@H](CO)[C@H](O)[C@H](O)[C@H]1O)[C@H](O)[C@H](O)CCCCCCCCCCCC(C)C [Compound 30, (2S,3S,4R)-1-(α-D-galactopyranosyloxy)-2-[(S)-2-hydroxytetracosanoylamino]-16-methyl-3,4-heptadecanediol] | 293 | 105 | 92 | 10 | 10 | 10 | 10 | 10 | 10 | 10 | 106.2 ± 9.0 × 10^4 /μl | 22.5 ± 3.5 × 10^4 /μl | 712 |
| CCCCCCCCCCCCCCCCCCCCCC(=O)N[C@@H](CO[C@H]1O[C@H](CO)[C@H](O)[C@H](O)[C@H]1O)[C@H](O)CCCCCCCCCCCCCCC [Compound 2, (2S,3R)-2-docosanoylamino-1-(α-D-galactopyranosyloxy)-3-octadecanol] | 295 | 92 | 123 | 10 | 10 | 9 | 9 | 9 | 9 | 8 | 96.3 ± 7.3 × 10^4 /μl | 21.5 ± 5.4 × 10^4 /μl | 915 |
| CCCCCCCCCCCCCCC[C@@H](O)[C@H](CO[C@H]1O[C@H](CO)[C@H](O)[C@H](O)[C@H]1O)NC(=O)CCCCCCC [Compound 7, (2S,3R)-1-(α-D-galactopyranosyloxy)-2-octanoylamino-3-octadecanol] | 631 | 351 | 313 | 10 | 8 | 6 | 5 | 5 | 5 | 5 | 76.0 ± 5.1 × 10^4 /μl | 12.3 ± 4.0 × 10^4 /μl | 972 |
| CCCCCCCCCCCCCCCCCCCCCCCC(=O)N[C@@H](CO[C@H]1O[C@H](CO)[C@H](O)[C@H](O)[C@H]1O)[C@H](O)CCCCCCCCCCC [Compound 9, (2S,3R)-1-(α-D-galactopyranosyloxy)-2-tetracosanoylamino-3-tetradecanol] | 547 | 103 | 134 | 10 | 8 | 6 | 6 | 6 | 6 | 6 | 100.5 ± 8.3 × 10^4 /μl | 17.6 ± 3.4 × 10^4 /μl |  |
